Measurements published in patent publication US9624200B2, “Therapeutic piperazines” (DART NEUROSCIENCE (CAYMAN) LTD., priority 2006, dated 2017).

test system: PDE4 from human U-937 cells; experiment: PDE4 Inhibition Assay; type: biochemical; conditions: 1 μM cAMP, [3H]-cAMP, read-out: Potency Class (Inhibitory Concentration) in the PDE4 assay
Method: PDE4 from human U-937 cells was used (see T. J. Torphy, et al., J. Pharmacol. Exp. Ther., 1992, 263, 1195-1205). Test compound at various concentration and/or vehicle was preincubated with 2 μg/ml enzyme in Tris-HCl buffer pH 7.5 for 15 minutes at 25° C. The reaction was initiated by addition of 1 1 μM cAMP and 0.01 1 μM [^3H]-cAMP for another 20 minute incubation period and terminated at 100° C. The resulting [^3H]-AMP was converted to [^3H]-adenosine by addition of snake venom nucleotidase and separated by AG1-X2 resin. An aliquot was removed and counted to determine the amount of [^3H]-adenosine formed. Results were converted to percent inhibition and IC so determined using XLfit from IDBS (ID Business Solutions Ltd., 2 Occam Court, Surrey Research Park, Guildford, Surrey, GU2 7QB UK).
Representative compounds of the present invention were tested and found to have significant PDE4 inhibition in this assay.

**Q.** With `COc1ccc(N2CCN(C(=O)Cc3ncc[nH]3)[C@@H](Cc3ccccc3)C2)cc1OC1CCCC1` [Compound 301, (S)-1-(2-benzyl-4-(3-(cyclopentyloxy)-4-methoxyphenyl)piperazin-1-yl)-2-(1H-imidazol-2-yl)ethanone] as the compound, how does the IC50 read?
**A.** The IC50 was < 200 nM.

**Q.** How did the IC50 turn out when `COc1ccc(N2CCN(C(=O)C(=O)c3ccco3)[C@@H](Cc3ccccc3)C2)cc1OC1CCCC1` [Compound 302, (S)-1-(2-benzyl-4-(3-(cyclopentyloxy)-4-methoxyphenyl)piperazin-1-yl)-2-(furan-2-yl)ethane-1,2-dione] was run?
**A.** The IC50 was 200 to 1000 nM.

**Q.** `COc1ccc(N2CCN(C(=O)Cc3c[nH]cn3)[C@@H](Cc3ccccc3)C2)cc1OC1CCC1` [Compound 303, (S)-1-(2-benzyl-4-(3-cyclobutoxy-4-methoxyphenyl)piperazin-1-yl)-2-(1H-imidazol-4-yl)ethanone] was tested. Which IC50 did it give?
**A.** Its IC50 is < 200 nM.

**Q.** With `COc1ccc(N2CCN(C(=O)c3cc[nH]n3)[C@@H](Cc3ccccc3)C2)cc1OC1CCCC1` [Compound 304, (S)-(2-benzyl-4-(3-(cyclopentyloxy)-4-methoxyphenyl)piperazin-1-yl)(1H-pyrazol-3-yl)methanone] as the compound, how does the IC50 read?
**A.** The IC50 was > 1000 nM.

**Q.** For `COc1ccc(N2CCN(C(=O)Cc3cc(C)[nH]n3)[C@@H](Cc3ccccc3)C2)cc1OC1CCCC1` [Compound 305, (S)-1-(2-benzyl-4-(3-(cyclopentyloxy)-4-methoxyphenyl)piperazin-1-yl)-2-(5-methyl-1H-pyrazol-3-yl)ethanone], which IC50 is on record?
**A.** Its IC50 is < 200 nM.

**Q.** For `COc1ccc(N2CCN(C(=O)Cc3ccc[nH]3)[C@@H](Cc3ccccc3)C2)cc1OC1CCCC1` [Compound 306, (S)-1-(2-benzyl-4-(3-(cyclopentyloxy)-4-methoxyphenyl)piperazin-1-yl)-2-(1H-pyrrol-2-yl)ethanone], which IC50 is on record?
**A.** Its IC50 is 200 to 1000 nM.

**Q.** How did the IC50 turn out when `COc1ccc(N2CCN(C(=O)Cc3cc[nH]c3)[C@@H](Cc3ccccc3)C2)cc1OC1CCCC1` [Compound 307, (S)-1-(2-benzyl-4-(3-(cyclopentyloxy)-4-methoxyphenyl)piperazin-1-yl)-2-(1H-pyrrol-3-yl)ethanone] was run?
**A.** The IC50 was < 200 nM.

**Q.** Which IC50 does the source give for `COc1ccc(N2CCN(C(=O)Cc3nc(C)cs3)[C@@H](Cc3ccccc3)C2)cc1OC1CCCC1` [Compound 308, (S)-1-(2-benzyl-4-(3-(cyclopentyloxy)-4-methoxyphenyl)piperazin-1-yl)-2-(4-methylthiazol-2-yl)ethanone] here?
**A.** The IC50 was < 200 nM.

**Q.** For `COc1ccc(N2CCN(C(=O)Cc3ccco3)[C@@H](Cc3ccccc3)C2)cc1OC1CCC1` [Compound 314, (S)-1-(2-benzyl-4-(3-cyclobutoxy-4-methoxyphenyl)piperazin-1-yl)-2-(furan-2-yl)ethanone], which IC50 is on record?
**A.** The IC50 was 200 to 1000 nM.

**Q.** Which IC50 does the source give for `COc1ccc(N2CCN(C(=O)C3(C(=O)O)CCC3)[C@@H](Cc3ccccc3)C2)cc1OC1CCC1` [Compound 315, (S)-1-(2-benzyl-4-(3-cyclobutoxy-4-methoxyphenyl)piperazine-1-carbonyl)cyclobutanecarboxylic acid] here?
**A.** Its IC50 is < 200 nM.

**Q.** With `COc1ccc(N2CCN(C(=O)Cc3cn(C)cn3)[C@@H](Cc3ccccc3)C2)cc1OC1CCCC1` [Compound 317, (S)-1-(2-benzyl-4-(3-(cyclopentyloxy)-4-methoxyphenyl)piperazin-1-yl)-2-(1-methyl-1H-imidazol-4-yl)ethanone] as the compound, how does the IC50 read?
**A.** The IC50 was < 200 nM.

**Q.** How did the IC50 turn out when `COc1ccc(N2CCN(C(=O)Cc3cncn3C)[C@@H](Cc3ccccc3)C2)cc1OC1CCCC1` [Compound 318, (S)-1-(2-benzyl-4-(3-(cyclopentyloxy)-4-methoxyphenyl)piperazin-1-yl)-2-(1-methyl-1H-imidazol-5-yl)ethanone] was run?
**A.** Its IC50 is 200 to 1000 nM.

**Q.** Which IC50 does the source give for `COc1ccc(N2CCN(C(=O)CN3CC[C@H](O)C3)[C@@H](Cc3ccccc3)C2)cc1OC1CCCC1` [Compound 319, 1-((S)-2-benzyl-4-(3-(cyclopentyloxy)-4-methoxyphenyl)piperazin-1-yl)-2-((S)-3-hydroxypyrrolidin-1-yl)ethanone] here?
**A.** The IC50 was 200 to 1000 nM.

**Q.** For `COc1ccc(N2CCN(C(=O)CN3CC[C@@H](O)C3)[C@@H](Cc3ccccc3)C2)cc1OC1CCCC1` [Compound 320, 1-((S)-2-benzyl-4-(3-(cyclopentyloxy)-4-methoxyphenyl)piperazin-1-yl)-2-((R)-3-hydroxypyrrolidin-1-yl)ethanone], which IC50 is on record?
**A.** Its IC50 is > 1000 nM.

**Q.** For `COc1ccc(N2CCN(C(=O)Cc3n[nH]c([N+](=O)[O-])n3)[C@@H](Cc3ccccc3)C2)cc1OC1CCCC1` [Compound 325, (S)-1-(2-benzyl-4-(3-(cyclopentyloxy)-4-methoxyphenyl)piperazin-1-yl)-2-(5-nitro-1H-1,2,4-triazol-3-yl)ethanone], which IC50 is on record?
**A.** Its IC50 is < 200 nM.

**Q.** With `COc1ccc(N2CCN(C(=O)Cc3cnc[nH]3)[C@@H](Cc3ccccc3)C2)cc1OC(C)C` [Compound 327, (S)-1-(2-benzyl-4-(3-isopropoxy-4-methoxyphenyl)piperazin-1-yl)-2-(1H-imidazol-5-yl)ethanone] as the compound, how does the IC50 read?
**A.** Its IC50 is < 200 nM.

**Q.** With `COc1ccc(N2CCN(C(=O)Cc3cc[nH]c3)[C@@H](Cc3ccccc3)C2)cc1OC(C)C` [Compound 328, (S)-1-(2-benzyl-4-(3-isopropoxy-4-methoxyphenyl)piperazin-1-yl)-2-(1H-pyrrol-3-yl)ethanone] as the compound, how does the IC50 read?
**A.** Its IC50 is < 200 nM.

**Q.** How did the IC50 turn out when `COc1ccc(N2CCN(C(=O)Cc3nc(C)n[nH]3)[C@@H](Cc3ccccc3)C2)cc1OC(C)C` [Compound 330, (S)-1-(2-benzyl-4-(3-isopropoxy-4-methoxyphenyl)piperazin-1-yl)-2-(3-methyl-1H-1,2,4-triazol-5-yl)ethanone] was run?
**A.** Its IC50 is < 200 nM.

**Q.** `Cc1n[nH]c(CC(=O)N2CCN(c3ccc(OC(F)F)c(OC(F)F)c3)C[C@@H]2Cc2ccccc2)n1` [Compound 332, (S)-1-(2-benzyl-4-(3,4-bis(difluoromethoxy)phenyl)piperazin-1-yl)-2-(3-methyl-1H-1,2,4-triazol-5-yl)ethanone] was tested. Which IC50 did it give?
**A.** Its IC50 is < 200 nM.

**Q.** With `COc1ccc(N2CCN(C(=O)Cn3ccnn3)[C@@H](Cc3ccccc3)C2)cc1OC1CCCC1` [Compound 334, (S)-1-(2-benzyl-4-(3-(cyclopentyloxy)-4-methoxyphenyl)piperazin-1-yl)-2-(1H-1,2,3-triazol-1-yl)ethanone] as the compound, how does the IC50 read?
**A.** The IC50 was > 1000 nM.

**Q.** How did the IC50 turn out when `COc1ccc(N2CCN(C(=O)Cc3nn[nH]n3)[C@@H](Cc3ccccc3)C2)cc1OC1CCC1` [Compound 335, (S)-1-(2-benzyl-4-(3-cyclobutoxy-4-methoxyphenyl)piperazin-1-yl)-2-(2H-tetrazol-5-yl)ethanone] was run?
**A.** The IC50 was < 200 nM.

**Q.** `COc1ccc(N2CCN(C(=O)Cc3n[nH]c([N+](=O)[O-])n3)[C@@H](Cc3ccccc3)C2)cc1OC(C)C` [Compound 336, (S)-1-(2-benzyl-4-(3-isopropoxy-4-methoxyphenyl)piperazin-1-yl)-2-(5-nitro-1H-1,2,4-triazol-3-yl)ethanone] was tested. Which IC50 did it give?
**A.** The IC50 was > 1000 nM.

**Q.** `COc1ccc(N2CCN(C(=O)Cc3nc(N)n[nH]3)[C@@H](Cc3ccccc3)C2)cc1OC(C)C` [Compound 337, (S)-2-(3-amino-1H-1,2,4-triazol-5-yl)-1-(2-benzyl-4-(3-isopropoxy-4-methoxyphenyl)piperazin-1-yl)ethanone] was tested. Which IC50 did it give?
**A.** Its IC50 is < 200 nM.

**Q.** How did the IC50 turn out when `COc1ccc(N2CCN(C(=O)Cc3n[nH]c([N+](=O)[O-])n3)[C@@H](Cc3ccccc3)C2)cc1OC1CCC1` [Compound 338, (S)-1-(2-benzyl-4-(3-cyclobutoxy-4-methoxyphenyl)piperazin-1-yl)-2-(5-nitro-1H-1,2,4-triazol-3-yl)ethanone] was run?
**A.** Its IC50 is 200 to 1000 nM.
